Laboratory results as given in BindingDB's records for patent US9776990 (Abbvie, 2017).

Molecular target: Bromodomain-containing protein 4 (Homo sapiens, UniProt O60885)

Ki [µM] | SMILES
19.7 | Cc1[nH]c(-c2cccc3ccccc23)c2c1C(=O)CCC2 [US9776990, Example 19]
10.4 | Cc1[nH]c(-c2ccccc2CN2C(=O)c3ccccc3C2=O)c2c1C(=O)CCC2 [US9776990, Example 26]
22.2 | Cc1[nH]c(-c2ccccc2Oc2ccccc2)c2c1C(=O)CC(CC(C)C)C2 (stereo not drawn) [US9776990, Example 68]
